According to PMC6832266, “Natural Sesquiterpene Lactones of the 4,15-iso-Atriplicolide Type are Inhibitors of Trypanothione Reductase” (Molecules, 2019):

Legend:
Type in all cases: biochemical
[1] = biological target: T1, trypanothione reductase (TcTR) (Trypanosoma cruzi, UniProt P28593); assay: NADPH-consumption TR assay on recombinant enzyme, % inhibition at […] after […] min preincubation; conditions: read-out: TcTR / % Inhibition at c = 100 μM Preincubation Time (min)
T1 construct: gene TPR
T1 sequence (P28593 whole entry): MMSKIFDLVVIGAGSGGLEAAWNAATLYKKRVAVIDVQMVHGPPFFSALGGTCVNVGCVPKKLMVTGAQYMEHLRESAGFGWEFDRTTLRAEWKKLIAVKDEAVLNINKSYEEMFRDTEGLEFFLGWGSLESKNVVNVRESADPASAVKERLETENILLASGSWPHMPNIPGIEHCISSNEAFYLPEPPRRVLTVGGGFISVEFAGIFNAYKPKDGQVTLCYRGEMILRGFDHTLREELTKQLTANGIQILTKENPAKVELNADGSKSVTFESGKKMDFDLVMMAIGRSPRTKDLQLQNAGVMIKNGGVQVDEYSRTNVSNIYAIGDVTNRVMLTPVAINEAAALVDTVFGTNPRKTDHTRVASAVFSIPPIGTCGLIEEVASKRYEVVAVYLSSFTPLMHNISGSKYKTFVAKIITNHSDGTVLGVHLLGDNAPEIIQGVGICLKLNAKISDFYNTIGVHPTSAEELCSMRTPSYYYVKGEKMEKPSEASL

[2] = biological target: T2, trypanothione reductase (TbTR) (Trypanosoma brucei, UniProt P39051); assay: NADPH-consumption TR assay on recombinant enzyme; Lineweaver-Burk kinetics; dilution assay (irreversible, time-dependent)
T2 construct: gene TPR
T2 sequence (P39051 whole entry): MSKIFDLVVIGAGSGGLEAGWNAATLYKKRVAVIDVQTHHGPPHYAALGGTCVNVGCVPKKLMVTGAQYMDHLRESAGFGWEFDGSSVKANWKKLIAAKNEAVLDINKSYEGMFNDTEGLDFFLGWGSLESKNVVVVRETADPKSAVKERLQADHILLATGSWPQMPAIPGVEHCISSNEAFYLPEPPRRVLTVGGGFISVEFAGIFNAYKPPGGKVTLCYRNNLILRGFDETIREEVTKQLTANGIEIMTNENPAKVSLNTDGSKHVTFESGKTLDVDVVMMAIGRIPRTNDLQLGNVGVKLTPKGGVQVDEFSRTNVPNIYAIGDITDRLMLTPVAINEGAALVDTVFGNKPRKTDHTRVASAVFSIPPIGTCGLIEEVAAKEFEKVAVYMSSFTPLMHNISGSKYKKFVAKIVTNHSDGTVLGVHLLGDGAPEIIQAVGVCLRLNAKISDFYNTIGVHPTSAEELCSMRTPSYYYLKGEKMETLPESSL

[3] = biological target: T2, trypanothione reductase (TbTR); assay: NADPH-consumption TR assay on recombinant enzyme, % inhibition at […] after […] min preincubation; dilution assay; conditions: read-out: TbTR / % Inhibition at c = 100 μM Preincubation Time (min)

C=C1C[C@H]2OC(=O)C(=C)[C@@H]2[C@H](OC(=O)/C(C)=C/C)C[C@@]2(C)OC1=CC2=O [compound 1, 4,15-iso-Atriplicolide tiglate]
inhibition at 100 µM [1]: 89 ± 1% | Ki [2]: 128 ± 8 µM

C=C(C)C(=O)O[C@@H]1C[C@@]2(C)OC(=CC2=O)C(=C)C[C@H]2OC(=O)C(=C)[C@H]12 [compound 2, 4,15-iso-atriplicolide methacrylate]
inhibition at 100 µM [1]: 41 ± 1% | inhibition at 100 µM [3]: 84%

C=C1C[C@H]2OC(=O)C(=C)[C@@H]2[C@H](OC(=O)C(C)C)C[C@@]2(C)OC1=CC2=O [compound 3, 4,15-iso-atriplicolide isobutyrate]
inhibition at 100 µM [1]: 80% | inhibition at 100 µM [3]: 79%
